Experimental data: patent US9642851B2, “Indolinone derivative as tyrosine kinase inhibitor” (KBP Biosciences Co., Ltd., priority 2012, dated 2017)
Counter-ions that a name gives are not always drawn.

How the values were obtained:
[1] = system: 3T3 cells; assay: In vitro cellular inhibitory activity, h-PDGF-BB stimulated 3T3 proliferation; assay type: cell-based; settings: Mus musculus, NIH3T3; h-PDGF-BB 10 ng/ml, incubated for 40 hours, absorbance at 490 nm; read-out: ED50 for the 3T3 in vitro cells
Protocol: (§1) (1) Thawing cells and Passing cells.
(§2) The 3T3 cells were resuspended in a culture medium containing 10% fetal bovine serum, wherein the cell concentration was 5×10^4/ml. The cell suspension was added to a 96-well plate with 100 μL per well, and incubated overnight; the HUVEC cells were resuspended in a culture medium containing 10% heat-inactivated fetal bovine serum, wherein the cell concentration was 7.5×10^4/ml. The cell suspension was added to a 96-well plate with 100 μL per well. • (3) Treating with drugs: the compounds were diluted to different concentrations, and 60 μLh-PDGF-BB (3T3 cells) and 40 ng/ml h-VEGF-A (HUVEC cells) were added and incubated for 1 hour. • (4) 100 μL of a solution containing the compound and h-PDGF-BB (h-VEGF-A, for the HUVEC cells) was added to a cell culture plate, wherein the final concentration of h-PDGF-BB was 10 ng/ml, the final concentration of h-VEGF-A was 10 ng/ml, and the final concentration for the compounds were 10, 3.3333, 1.1111, 0.3704, 0.1235, 0.0412, 0.0137, 0.0046, and 0.0015 μM. The plate was incubated for 40 hours, and the HUVEC cells were incubated for 89 hours. To each well was added 20 μL Promega Substrate, and the plate was incubated at 37° C. for 7.5 hours, and the HUVEC cells were incubated for 11.5 hours. Then the plate was placed in a microplate reader to read the absorbance at 490 nm. • (5) Data processing
(§3) The curve of the compound concentration vs. Net OD was plotted, wherein Net OD=Compound OD−min. OD. ED50 was calculated according to the following equation: Conc. ED50(x)=(y−b)/a, y=Calculated Net OD for IC50, a=slope, b=intercept.

[2] = system: HUVEC cells; assay: In vitro cellular inhibitory activity, h-VEGF-A stimulated HUVEC proliferation; assay type: cell-based; settings: Homo sapiens, h-VEGF-A 10 ng/ml, incubated for 89 hours, absorbance at 490 nm, read-out: ED50 for the HUVEC in vitro cells
Protocol: as §1, §2, §3

[3] = target: T1, FGFR1 (Homo sapiens, UniProt P11362); assay: In vitro enzymology inhibitory activity (Caliper mobility shift kinase assay); assay type: biochemical; settings: reaction 1 hour at 28° C., FAM-labelled peptide and ATP
T1 construct: purchased Carna
T1 sequence (P11362 22-822): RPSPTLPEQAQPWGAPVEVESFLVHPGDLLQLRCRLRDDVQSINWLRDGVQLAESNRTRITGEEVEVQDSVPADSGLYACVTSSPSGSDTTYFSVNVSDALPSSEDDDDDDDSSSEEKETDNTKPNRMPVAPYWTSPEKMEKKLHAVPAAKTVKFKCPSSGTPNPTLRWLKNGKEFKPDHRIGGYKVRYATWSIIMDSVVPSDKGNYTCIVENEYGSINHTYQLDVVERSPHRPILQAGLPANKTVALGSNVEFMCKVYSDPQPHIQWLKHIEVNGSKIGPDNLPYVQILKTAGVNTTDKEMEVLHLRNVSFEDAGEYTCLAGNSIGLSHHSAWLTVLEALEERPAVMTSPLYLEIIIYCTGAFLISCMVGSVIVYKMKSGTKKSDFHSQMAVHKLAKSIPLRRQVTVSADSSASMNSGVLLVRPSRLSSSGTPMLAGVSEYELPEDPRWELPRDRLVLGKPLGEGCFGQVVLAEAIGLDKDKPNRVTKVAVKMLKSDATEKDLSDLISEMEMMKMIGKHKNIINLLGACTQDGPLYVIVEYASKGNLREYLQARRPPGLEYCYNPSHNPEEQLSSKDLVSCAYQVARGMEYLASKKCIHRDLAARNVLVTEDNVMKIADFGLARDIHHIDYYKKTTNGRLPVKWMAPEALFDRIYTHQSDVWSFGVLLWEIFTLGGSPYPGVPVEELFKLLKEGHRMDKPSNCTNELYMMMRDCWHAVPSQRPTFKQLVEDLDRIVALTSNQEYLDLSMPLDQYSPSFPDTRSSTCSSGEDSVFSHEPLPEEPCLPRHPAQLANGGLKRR
Protocol: (§4) • (1) Preparation of agents and compounds • (1) 1-fold kinase buffer without MnCl2 (50 mM HEPES, pH=7.5, 0.0015% Brij-35, 10 mM MgCl2, 2 mM DTT) • (2) 1-fold kinase buffer with MnCl2 (50 mM HEPES, pH=7.5, 0.0015% Brij-35, 10 mM MgCl2, 10 mM MnCl2, 2 mM DTT); • (3) Termination solution (100 mM HEPES, pH=7.5, 0.015% Brij-35, 0.2% Coating Reagent #3, 50 mM EDTA); • (4) 2.5-fold kinase solution (the VEGFR2, FGFR1, FGFR3, PDGFRβ kinases were added to the 1-fold kinase buffer respectively to prepare the corresponding 2.5-fold kinase solutions); • (5) 2.5-fold substrate solution: FAM-labelled peptide and ATP were added to the 1-fold kinase buffer to prepare a peptide solution; • (6) 4-fold dilution of the compound solution: the compound was accurately weighed, and dissolved in DMSO. The mixture was mixed sufficiently and evenly to prepare a 10 mM solution. Then the solution was diluted with DMSO to 500 μM, and 4-fold serial dilutions were done at 10 concentrations with a highest concentration of 50μM.
(§5) The calculated inhibition ratio (%)=(max. conversion−sample conversion)/(max. conversion−min. conversion)×100
(§6) The curve fitting was done with the software Xlfit to obtain the IC50 value.

[4] = target: T2, FGFR3 (Homo sapiens, UniProt P22607); assay: as above; assay type: biochemical; settings: reaction 1 hour at 28° C., FAM-labelled peptide and ATP
T2 construct: purchased Carna
T2 sequence (P22607 23-806): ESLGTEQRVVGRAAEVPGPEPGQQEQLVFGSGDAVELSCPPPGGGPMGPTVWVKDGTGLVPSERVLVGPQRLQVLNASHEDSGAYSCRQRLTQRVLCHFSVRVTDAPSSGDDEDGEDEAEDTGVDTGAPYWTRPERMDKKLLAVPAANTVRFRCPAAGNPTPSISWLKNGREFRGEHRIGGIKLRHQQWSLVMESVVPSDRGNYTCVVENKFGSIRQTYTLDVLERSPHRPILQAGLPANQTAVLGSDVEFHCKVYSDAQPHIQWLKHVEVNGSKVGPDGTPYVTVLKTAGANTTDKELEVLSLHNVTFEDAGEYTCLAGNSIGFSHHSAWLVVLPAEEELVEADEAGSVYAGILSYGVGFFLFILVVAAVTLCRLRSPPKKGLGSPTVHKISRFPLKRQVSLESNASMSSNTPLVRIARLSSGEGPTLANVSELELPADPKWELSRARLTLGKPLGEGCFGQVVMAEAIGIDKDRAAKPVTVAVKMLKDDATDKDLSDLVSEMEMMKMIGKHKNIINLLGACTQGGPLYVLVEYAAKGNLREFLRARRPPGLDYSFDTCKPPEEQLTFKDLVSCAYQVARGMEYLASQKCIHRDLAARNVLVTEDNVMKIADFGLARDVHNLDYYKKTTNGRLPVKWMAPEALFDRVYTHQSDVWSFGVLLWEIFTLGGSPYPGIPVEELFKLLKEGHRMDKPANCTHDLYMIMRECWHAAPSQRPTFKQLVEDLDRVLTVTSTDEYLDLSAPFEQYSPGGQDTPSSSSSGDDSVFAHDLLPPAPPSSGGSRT
Protocol: as §4, §5, §6

[5] = target: T3, PDGFRβ (Homo sapiens, UniProt P09619); assay: as above; assay type: biochemical; settings: reaction 5 hour at 28° C., FAM-labelled peptide and ATP
T3 construct: purchased BPS
T3 sequence (P09619 33-1106): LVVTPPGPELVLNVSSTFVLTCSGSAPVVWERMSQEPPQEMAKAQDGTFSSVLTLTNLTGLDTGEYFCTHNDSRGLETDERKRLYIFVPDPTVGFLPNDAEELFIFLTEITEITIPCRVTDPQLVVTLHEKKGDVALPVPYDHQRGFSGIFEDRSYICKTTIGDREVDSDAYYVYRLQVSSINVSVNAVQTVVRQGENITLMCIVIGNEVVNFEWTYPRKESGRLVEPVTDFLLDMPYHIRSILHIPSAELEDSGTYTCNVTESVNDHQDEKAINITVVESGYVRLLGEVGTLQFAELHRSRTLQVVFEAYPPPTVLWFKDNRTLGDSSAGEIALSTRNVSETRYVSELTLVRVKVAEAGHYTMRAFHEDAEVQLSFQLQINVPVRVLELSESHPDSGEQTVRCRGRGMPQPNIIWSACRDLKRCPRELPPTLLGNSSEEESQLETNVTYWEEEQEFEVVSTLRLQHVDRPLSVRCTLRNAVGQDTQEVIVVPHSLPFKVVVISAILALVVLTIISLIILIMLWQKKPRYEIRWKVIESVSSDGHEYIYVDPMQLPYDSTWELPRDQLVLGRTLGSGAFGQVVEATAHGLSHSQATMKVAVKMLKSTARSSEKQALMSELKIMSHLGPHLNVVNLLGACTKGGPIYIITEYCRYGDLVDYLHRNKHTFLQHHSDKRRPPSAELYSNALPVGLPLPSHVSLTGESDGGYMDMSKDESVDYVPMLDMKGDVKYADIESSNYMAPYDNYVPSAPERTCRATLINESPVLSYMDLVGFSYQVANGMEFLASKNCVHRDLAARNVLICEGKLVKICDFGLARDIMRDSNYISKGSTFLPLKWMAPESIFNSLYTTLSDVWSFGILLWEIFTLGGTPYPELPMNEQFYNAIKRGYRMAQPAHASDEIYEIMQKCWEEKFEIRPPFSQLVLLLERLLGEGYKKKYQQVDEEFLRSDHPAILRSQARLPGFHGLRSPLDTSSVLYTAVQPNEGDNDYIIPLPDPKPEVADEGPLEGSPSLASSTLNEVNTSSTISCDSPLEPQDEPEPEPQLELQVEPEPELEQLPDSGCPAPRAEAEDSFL
Protocol: as §4, §5, §6

[6] = target: T4, VEGFR2 (Homo sapiens, UniProt P35968); assay: as above; assay type: biochemical; settings: reaction 1 hour at 28° C., FAM-labelled peptide and ATP
T4 construct: purchased Carna
T4 sequence (P35968 20-1356): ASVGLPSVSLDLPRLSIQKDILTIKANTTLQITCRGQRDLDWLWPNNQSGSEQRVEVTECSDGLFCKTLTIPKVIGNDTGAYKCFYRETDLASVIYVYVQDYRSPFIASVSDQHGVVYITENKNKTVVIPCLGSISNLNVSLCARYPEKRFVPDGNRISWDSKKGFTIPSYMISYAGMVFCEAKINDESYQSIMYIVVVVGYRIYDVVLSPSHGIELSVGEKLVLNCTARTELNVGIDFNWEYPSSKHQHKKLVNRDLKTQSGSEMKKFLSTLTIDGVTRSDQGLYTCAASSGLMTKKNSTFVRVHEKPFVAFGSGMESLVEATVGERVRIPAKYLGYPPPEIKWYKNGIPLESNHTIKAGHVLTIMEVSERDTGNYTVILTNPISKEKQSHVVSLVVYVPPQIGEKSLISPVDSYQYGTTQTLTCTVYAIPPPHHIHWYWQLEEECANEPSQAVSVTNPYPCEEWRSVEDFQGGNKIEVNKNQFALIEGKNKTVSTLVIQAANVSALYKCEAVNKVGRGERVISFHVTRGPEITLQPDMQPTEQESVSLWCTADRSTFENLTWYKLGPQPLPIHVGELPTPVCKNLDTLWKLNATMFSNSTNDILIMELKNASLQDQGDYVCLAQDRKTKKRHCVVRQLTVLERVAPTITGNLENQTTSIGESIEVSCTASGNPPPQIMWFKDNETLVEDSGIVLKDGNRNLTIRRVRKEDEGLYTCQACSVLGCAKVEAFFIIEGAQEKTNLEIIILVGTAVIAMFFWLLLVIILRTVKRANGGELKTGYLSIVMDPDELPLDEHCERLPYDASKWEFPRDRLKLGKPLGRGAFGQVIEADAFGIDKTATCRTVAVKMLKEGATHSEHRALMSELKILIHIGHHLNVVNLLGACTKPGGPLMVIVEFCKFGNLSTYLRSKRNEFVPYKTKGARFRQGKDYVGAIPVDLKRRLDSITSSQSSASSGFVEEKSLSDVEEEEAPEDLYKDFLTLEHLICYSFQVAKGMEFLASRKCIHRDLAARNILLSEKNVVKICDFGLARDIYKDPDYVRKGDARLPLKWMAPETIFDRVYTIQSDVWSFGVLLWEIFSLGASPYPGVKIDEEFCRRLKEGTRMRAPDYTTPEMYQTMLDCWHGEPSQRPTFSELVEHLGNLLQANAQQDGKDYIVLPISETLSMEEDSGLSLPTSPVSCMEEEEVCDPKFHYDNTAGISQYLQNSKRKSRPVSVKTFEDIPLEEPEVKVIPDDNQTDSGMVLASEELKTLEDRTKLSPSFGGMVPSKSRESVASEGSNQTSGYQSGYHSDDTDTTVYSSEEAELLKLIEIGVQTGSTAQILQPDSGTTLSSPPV
Protocol: as §4, §5, §6

**Q.** With `COC(=O)c1ccc2c(c1)NC(=O)/C2=C(\Nc1ccc2c(c1)CCN2C(=O)CN1CCN(C)CC1)c1ccccc1` [Compound 1] as the compound, how does the EC50 [1] read?
**A.** 60 to 80 nM

**Q.** And the EC50 [2]?
**A.** 56 to 84 nM

**Q.** And the IC50 [3]?
**A.** 100 nM

**Q.** What about the IC50 [4] of the same compound?
**A.** 230 nM

**Q.** What about the IC50 [5] of the same compound?
**A.** 7.6 nM

**Q.** And the IC50 [6]?
**A.** 17 nM

**Q.** What does the source list for `COC(=O)c1ccc2c(c1)NC(=O)/C2=C(\Nc1ccc2c(c1)CCN2C(=O)CN(C)C)c1ccccc1` [Compound 2 hydrochloride, methyl(Z)-3-((1-(2-(dimethylamino)acetyl)indolin-5-ylamino)(phenyl)methylene)-2oxoindoline-6-carboxylate hydrochloride]?
**A.** IC50 [4]: 280 nM; IC50 [5]: 15 nM

**Q.** `COC(=O)c1ccc2c(c1)NC(=O)/C2=C(\Nc1ccc2c(c1)CCN2C(=O)CN1CCN(C)CC1)c1ccc(F)cc1` [Compound 3] was tested. Which EC50 [1] did it give?
**A.** 1300 to 1900 nM

**Q.** What about the EC50 [2] of the same compound?
**A.** 180 to 260 nM

**Q.** For `COC(=O)c1ccc2c(c1)NC(=O)/C2=C(\Nc1ccc2c(c1)CCN2C(=O)CC1CCN(C)CC1)c1ccccc1` [Compound 5], which EC50 [1] is on record?
**A.** 820 to 1240 nM

**Q.** What about the EC50 [2] of the same compound?
**A.** 100 to 150 nM

**Q.** `COC(=O)c1ccc2c(c1)NC(=O)/C2=C(\Nc1ccc2c(c1)CCN2C(=O)CN1CCOCC1)c1ccccc1` [Compound 7 hydrochloride] was tested. Which EC50 [1] did it give?
**A.** 50 to 70 nM

**Q.** Which EC50 [2] does the source give for `COC(=O)c1ccc2c(c1)NC(=O)/C2=C(\Nc1ccc2c(c1)CCN2C(=O)CN1CCOCC1)c1ccc(F)cc1` [Compound 9 hydrochloride, methyl(Z)-3-((4-fluorophenyl)(1-(2-morpholinylacetyl)indolin-5-ylamino)methylene)-2-oxoindoline-6-carboxylate] here?
**A.** 130 to 190 nM

**Q.** And the IC50 [4]?
**A.** 9800 nM

**Q.** And the IC50 [5]?
**A.** 85 nM

**Q.** What about the IC50 [6] of the same compound?
**A.** 770 nM

**Q.** `CCOC(=O)c1ccc2c(c1)NC(=O)/C2=C(\Nc1ccc2c(c1)CCN2C(=O)CN1CCOCC1)c1ccccc1` [Compound 10 hydrochloride, ethyl(Z)-3-((1-(2-morpholinylacetyl)indolin-5-ylamino)(phenyl)methylene)-2-oxoindoline-6-carboxylate] was tested. Which EC50 [2] did it give?
**A.** 90 to 140 nM

**Q.** What about the IC50 [3] of the same compound?
**A.** 7960 nM

**Q.** And the IC50 [4]?
**A.** 5300 nM

**Q.** And the IC50 [5]?
**A.** 65 nM

**Q.** What about the IC50 [6] of the same compound?
**A.** 630 nM

**Q.** With `COC(=O)c1ccc2c(c1)NC(=O)/C2=C(\Nc1ccc2c(c1)CCN2C(=O)CN1CCCC1=O)c1ccccc1` [Compound 12 hydrochloride, methyl(Z)-3-((1-(2-(2-pyrrolidon-1-yl)acetyl)indolin-5-ylamino)(phenyl)methylene)-2-oxoindoline-6-carboxylate] as the compound, how does the EC50 [2] read?
**A.** 20 to 30 nM

**Q.** What about the IC50 [4] of the same compound?
**A.** 1720 nM

**Q.** What about the IC50 [5] of the same compound?
**A.** 19 nM

**Q.** `COC(=O)c1ccc2c(c1)NC(=O)/C2=C(\Nc1ccc2c(c1)CCN2C(=O)Cn1cncn1)c1ccccc1` [Compound 13 hydrochloride, methyl(Z)-3-((1-(2-(1H-1,2,4-triazol-1-yl)acetyl)indolin-5-ylamino)(phenyl)methylene)-2-oxoindoline-6-carboxylate] was tested. Which EC50 [2] did it give?
**A.** 60 to 90 nM

**Q.** What about the IC50 [3] of the same compound?
**A.** 700 nM

**Q.** What about the IC50 [4] of the same compound?
**A.** 540 nM

**Q.** What about the IC50 [5] of the same compound?
**A.** 14 nM

**Q.** For `COC(=O)c1ccc2c(c1)NC(=O)/C2=C(\Nc1ccc2c(c1)CCN2C(=O)Cn1cccn1)c1ccccc1` [Compound 14 hydrochloride, methyl(Z)-3-((1-(2-(1H-pyrazol-1-yl)acetyl)indolin-5-ylamino)(phenyl)methylene)-2-oxoindoline-6-carboxylate], which EC50 [2] is on record?
**A.** 70 to 100 nM

**Q.** And the IC50 [4]?
**A.** 4020 nM

**Q.** And the IC50 [5]?
**A.** 24 nM
